# Where two headings read alike, the source gives them in different places.
# Legend:
# [1] = system: gram-positive bacteria; settings: cited from earlier work
# [2] = system: gram-negative bacteria; settings: than that of the prior compounds (e.g. norfloxacin, ciprofloxacin); cited from earlier work
# [3] = system: K. pneumoniae 1-220S; test: microbe, parasite or virus in culture; settings: Klebsiella pneumoniae, 1220S
# [4] = system: Bacillus subtilis PCI 219; test: microbe, parasite or virus in culture; settings: PCI219
# [5] = system: S. aureus Smith; test: microbe, parasite or virus in culture; settings: Staphylococcus aureus
# [6] = system: Pseudomonas aeruginosa V-1; test: MIC, aerobic bacteria; settings: V1
# [7] = system: Salmonella enteritidis IID 604; test: microbe, parasite or virus in culture; settings: Salmonella enterica
# [8] = system: Yersinia enterocolitica IID 981; test: microbe, parasite or virus in culture; settings: IID981
# [9] = system: Eubacterium limosum KYA 8486; test: MIC, anaerobic bacteria; settings: KYA8486
# [10] = system: Pst. micros UPI 5464-1; test: MIC, anaerobic bacteria; assay type: cell-based; settings: Parvimonas micra, UPI54641, Gram +, 10^6 cells/ml
# Description: (§1) | Organism (10^6 cells/ml)
# [11] = system: B. vulgatus KYA 29327; test: MIC, anaerobic bacteria; assay type: cell-based; settings: Phocaeicola vulgatus, KYA29327, Gram -, 10^6 cells/ml
# Description: as §1
# [12] = system: B. fragilis 25285; test: MIC, anaerobic bacteria; assay type: cell-based; settings: Bacteroides fragilis, Gram -, 10^6 cells/ml
# Description: as §1
# [13] = system: B. distasonis 8503; test: MIC, anaerobic bacteria; assay type: cell-based; settings: Parabacteroides distasonis, Gram -, 10^6 cells/ml
# Description: as §1
# [14] = system: B. fragilis 0558; test: MIC, anaerobic bacteria; assay type: cell-based; settings: Bacteroides fragilis, Gram -, 10^6 cells/ml
# Description: as §1
# [15] = system: Veillonella parvula KYA 10790; test: MIC, anaerobic bacteria; assay type: cell-based; settings: KYA10790, Gram -, 10^6 cells/ml
# Description: as §1
# [16] = system: Fusobacterium mortiferum 4249; test: MIC, anaerobic bacteria; assay type: cell-based; settings: Gram -, 10^6 cells/ml
# Description: as §1
# [17] = system: Bacteroides fragilis GM 7000; test: MIC, anaerobic bacteria; assay type: cell-based; settings: GM7000, Gram -, 10^6 cells/ml
# Description: as §1
# [18] = system: C. ramosum; test: MIC, anaerobic bacteria; settings: Thomasclavelia ramosa
# [19] = system: Serratia marcescens IID 618; test: MIC, aerobic bacteria; assay type: cell-based; settings: IID618, Gram -, 10^6 cells/ml
# Description: as §1
# [20] = system: Acinetobacter anitratus IID 876; test: MIC, aerobic bacteria; assay type: cell-based; settings: Acinetobacter calcoaceticus, IID876, Gram -, 10^6 cells/ml
# Description: as §1
# [21] = system: Citrobacter freundii IID 976; test: MIC, aerobic bacteria; assay type: cell-based; settings: IID976, Gram -, 10^6 cells/ml
# Description: as §1
# [22] = system: Proteus vulgaris IFO 3167; test: MIC, aerobic bacteria; assay type: cell-based; settings: IFO3167, Gram -, 10^6 cells/ml
# Description: as §1
# [23] = system: S. epidermidis IID 866; test: MIC, aerobic bacteria; assay type: cell-based; settings: Staphylococcus epidermidis, IID866, Gram +, 10^6 cells/ml
# Description: as §1
# [24] = system: P. mirabilis IID 992; test: MIC, aerobic bacteria; assay type: cell-based; settings: Proteus mirabilis, IID992, Gram -, 10^6 cells/ml
# Description: as §1
# [25] = system: Klebsiella pneumoniae KY(GN)6445; test: MIC, aerobic bacteria; assay type: cell-based; settings: Gram -, 10^6 cells/ml
# Description: as §1
# [26] = system: Escherichia coli NIHJ JC-2; test: MIC, aerobic bacteria; assay type: cell-based; settings: NIHJJC2, Gram -, 10^6 cells/ml
# Description: as §1
# [27] = system: E. coli ATCC 10536; test: MIC, aerobic bacteria; assay type: cell-based; settings: Escherichia coli, ATCC10536, Gram -, 10^6 cells/ml
# Description: as §1
# [28] = system: Morganella morganii IID 602; test: MIC, aerobic bacteria; assay type: cell-based; settings: IID602, Gram -, 10^6 cells/ml
# Description: as §1
# [29] = system: S. aureus IID 670 (Terajima); test: MIC, aerobic bacteria; assay type: cell-based; settings: Staphylococcus aureus, IID670, Gram +, 10^6 cells/ml
# Description: as §1
# [30] = system: Alcaligenes faecalis 0114002; test: MIC, aerobic bacteria
# [31] = system: Staphylococcus aureus 209 P; test: microbe, parasite or virus in culture
smiles,measurement,setting,value
CCNCC1CCN(c2c(F)cc3c(=O)c(C(=O)O)cn(CC)c3c2F)C1 (centres unmarked) [CI-934],activity against gram-positive bacteria,"[1]; prior drugs, e.g. CI-934",relatively strong activity
same,activity against gram-negative bacteria,[2],weaker activity
"O=C(O)c1cn(C2CC2)c2cc(N3CCNCC3)c(F)cc2c1=O [CPFX, ciprofloxacin, reference compound]",MIC,[3],0.05 µg/mL
same,MIC,[4],0.05 µg/mL
same,MIC,[5],0.2 µg/mL
same,MIC,[6],0.05 µg/mL
same,MIC,[7],0.025 µg/mL
same,MIC,[8],0.05 µg/mL
same,MIC,[9],3.13 µg/mL
same,MIC,[10],0.2 µg/mL
same,MIC,[11],25 µg/mL
same,MIC,[12],6.25 µg/mL
same,MIC,[13],6.25 µg/mL
same,MIC,[14],3.13 µg/mL
same,MIC,[15],0.2 µg/mL
same,MIC,[16],3.13 µg/mL
same,MIC,[17],6.25 µg/mL
same,MIC,[18],6.25 µg/mL
same,MIC,[19],0.05 µg/mL
same,MIC,[20],0.2 µg/mL
same,MIC,[21],0.025 µg/mL
same,MIC,[22],0.025 µg/mL
same,MIC,[23],0.1 µg/mL
same,MIC,[24],0.025 µg/mL
same,MIC,[25],0.025 µg/mL
same,MIC,[26],≤ 0.0063 µg/mL
same,MIC,[27],0.025 µg/mL
same,MIC,[28],0.05 µg/mL
same,MIC,[29],0.1 µg/mL
same,MIC,[30],0.2 µg/mL
same,MIC,[31],0.2 µg/mL
CCn1cc(C(=O)O)c(=O)c2cc(F)c(N3CCNCC3)cc21 [norfloxacin],activity against gram-positive bacteria,[1]; compared with gram-negative bacteria,fairly less than that against gram-negative bacteria

# Source: US4791118A, “Quinolonecarboxylic acid derivatives and their preparation” (Kyorin Pharmaceutical Co., Ltd., priority 1985, dated 1988)
